Reference: ChEMBL document CHEMBL1155672, “Secobotrytriendiol and related sesquiterpenoids: new phytotoxic metabolites from Botrytis cinerea” (J Nat Prod, 2000)
Calls of active or inactive are those of the source. No cut-off for these calls is given here.

Tests used:
Format in all cases: functional, organism-based
Nicotiana tabacum [1] = experiment: Phytotoxicity against Nicotiana tabacum at 250 ppm after 7 days
Nicotiana tabacum [2] = experiment: Phytotoxicity against Nicotiana tabacum at 500 ppm after 7 days
Nicotiana tabacum [3] = experiment: Phytotoxicity against Nicotiana tabacum at 1000 ppm after 7 days

With CC1(C)C[C@](C)(CO)c2c1ccc(CO)c2CO the Activity (Nicotiana tabacum [1]) was “Active”.
Cc1ccc2c(c1CO)[C@@](C)(CO)CC2(C)C was tested, and the Activity (Nicotiana tabacum [2]) was “Active”.
In the case of CO[C@H]1O[C@H](OC)[C@@]2(C)CC(C)(C)[C@@H]3[C@@H](OC(C)=O)C[C@@H](C)[C@H]1[C@@]32O, the Activity (Nicotiana tabacum [3]) is reported as “Active”.
With C=CC1=C(/C(=C\C)CO)[C@@](C)(CO)CC1(C)C the Activity (Nicotiana tabacum [2]) was “Active”.
For COC(=O)[C@H]1[C@H](C)C[C@H](OC(C)=O)[C@H]2C(C)(C)C[C@](C)(CO)[C@@]12O, the Activity (Nicotiana tabacum [2]) was “Active”.
